Columns and labels:
[1] = Tissue distribution (biodistribution) of radioiodinated compound in the rat; conditions: rat; for Brain: Blood Ratio / Heart: Blood Ratio / radioactivity in blood / radioactivity in brain / radioactivity in heart / radioactivity in kidney / radioactivity in liver / radioactivity in lung / radioactivity in muscle / radioactivity in spleen: iv
vesamicol receptor = test: Blocking experiments: inhibition of radiotracer accumulation in the rat by coadministered compound; format: in vivo, rat (male Wistar)
Protocol: *Animals in group 1 received an iv injection of (+)4-[^125 l]HIPP
only. For groups 2, 3, and 4, the radiotracer was coadministered with the
hydrochlorides of (+)7 (0.53 mg/kg), (-)7 (0.53 mg/kg) and vesamicol (0.3
Four groups of male Wistar rats (n=3) were used in these experiments. All animals received an iv dose of 8-10 μCi of the radiotracer in 0.1 ml of 50% aq. ethanol. Additionally, in groups 2, 3 and 4, the radiotracer was coadministered with (+)-HBrPP.HCl(1.3 μmol/kg), (-)-HBrPP.HCl(1.3 μmol/kg) and (dl)-vesamicol hydrochloride (1.1 μmol/kg), respectively. At 60 min. post-injection, blood was collected by cardiac puncture and the animals sacrificed as described above. The data was analyzed as outlined above.
NOTE: The dose of radiotracer injected was 5-7 mCi. Group I was the
control, injected with the radiotracer only. Group II included the
simultaneous injection of "cold"(dl)3-HIPP (HCl) (0.53 mg/kg). Group III
included the simultaneous injection of (dl) vesamicol (HCl) (0.31 mg/kg).
All rats were sacrificed at one hour postinjection.
NOTE: Group I was the control, injected with the radiotracer only. Group
II included the simultaneous injection of "cold"(dl)3-HIPP (HCl) (0.53
mg/kg). Group III included the simultaneous injection of (dl) vesamicol
hydrochloride (0.31 mg/kg). The dose of radiotracer was 8-9 μCi. All
rats were sacrificed at one hour postinjection.
NOTE: Group I received (+)[^125 l]13 only. Group II received the (+)
radiotracer coinjected with 0.31 mg/kg (dl)vesamicol hydrochloride. Group
III received (-)[^125 l]13 only. Group IV received the (-) radiotrace
coinjected with 0.31 mg/kg (dl)vesamicol hydrochloride. All animals were
sacrificed at one hour postinjection. The dose of radiotracer injected pe

[2] = rat, iv, 60 min, + (dl)-vesamicol HCl 0.3 (Table 3) or 0.31 mg/kg; 60 min
[3] = rat, iv, 60 min, + cold (dl)3-HIPP HCl 0.53 mg/kg; 60 min
[4] = rat, iv, 60 min, radiotracer only (control)

OC(Cc1cccc([125I])c1)CN1CCC(c2ccccc2)CC1 (single isomer, unassigned; (-)) [(-)-[^125 l]12] [2-Hydroxyl-3-(3-iodophenyl)-1-[1-(4-phenylpiperidinyl)]propane]
decrease of concentration in the brain ([1]; 1 hour post-injection vs initial, listed as (-)-[^125 I]12): 43%
decrease of concentration in the brain ([1]; 3 hours post-injection vs initial, listed as (-)-[^125 I]12): 74%
initial accumulation in the rat brain ([1]; listed as (-)-[^125 I]12): 1.86 % of the injected dose
Brain: Blood Ratio ([1]; 5 min): 9.0
Heart: Blood Ratio ([1]; 5 min): 11.4
radioactivity in blood ([1]; 5 min): 0.11 % dose/g
radioactivity in brain ([1]; 5 min): 0.98 % dose/g
radioactivity in heart ([1]; 5 min): 1.26 % dose/g
radioactivity in kidney ([1]; 5 min): 2.46 % dose/g
radioactivity in liver ([1]; 5 min): 1.41 % dose/g
radioactivity in lung ([1]; 5 min): 8.94 % dose/g
radioactivity in muscle ([1]; 5 min): 0.36 % dose/g
radioactivity in spleen ([1]; 5 min): 0.66 % dose/g
Brain: Blood Ratio ([1]; 60 min): 5.1
Heart: Blood Ratio ([1]; 60 min): 1.9
radioactivity in blood ([1]; 60 min): 0.11 % dose/g
radioactivity in brain ([1]; 60 min): 0.56 % dose/g
radioactivity in heart ([1]; 60 min): 0.21 % dose/g
radioactivity in kidney ([1]; 60 min): 1.00 % dose/g
radioactivity in liver ([1]; 60 min): 1.04 % dose/g
radioactivity in lung ([1]; 60 min): 1.04 % dose/g
radioactivity in muscle ([1]; 60 min): 0.14 % dose/g
radioactivity in spleen ([1]; 60 min): 0.95 % dose/g
Brain: Blood Ratio ([1]; 180 min): 2.6
Heart: Blood Ratio ([1]; 180 min): 0.9
radioactivity in blood ([1]; 180 min): 0.11 % dose/g
radioactivity in brain ([1]; 180 min): 0.27 % dose/g
radioactivity in heart ([1]; 180 min): 0.10 % dose/g
radioactivity in kidney ([1]; 180 min): 0.59 % dose/g
radioactivity in liver ([1]; 180 min): 0.79 % dose/g
radioactivity in lung ([1]; 180 min): 0.46 % dose/g
radioactivity in muscle ([1]; 180 min): 0.08 % dose/g
radioactivity in spleen ([1]; 180 min): 0.44 % dose/g
effect of coadministered vesamicol on accumulation (in words) (vesamicol receptor; rat): inhibited
Brain: Blood Ratio (vesamicol receptor; [2]): 1.40
Heart: Blood Ratio (vesamicol receptor; [2]): 0.95
radioactivity in blood (vesamicol receptor; [2]): 0.14 % dose/g of tissue
radioactivity in brain (vesamicol receptor; [2]): 0.20 % dose/g of tissue
radioactivity in heart (vesamicol receptor; [2]): 0.14 % dose/g of tissue
radioactivity in kidney (vesamicol receptor; [2]): 0.46 % dose/g of tissue
radioactivity in liver (vesamicol receptor; [2]): 0.81 % dose/g of tissue
radioactivity in lung (vesamicol receptor; [2]): 0.73 % dose/g of tissue
radioactivity in muscle (vesamicol receptor; [2]): 0.13 % dose/g of tissue
radioactivity in spleen (vesamicol receptor; [2]): 0.50 % dose/g of tissue
radioactivity in blood (vesamicol receptor; rat, iv, 60 min, + cold (dl)3-HIPP HCl 0.53 mg/kg): 0.13 % dose/g of tissue
Brain: Blood Ratio (vesamicol receptor; [3]): 1.19
Heart: Blood Ratio (vesamicol receptor; [3]): 0.87
radioactivity in brain (vesamicol receptor; [3]): 0.15 % dose/g of tissue
radioactivity in heart (vesamicol receptor; [3]): 0.11 % dose/g of tissue
radioactivity in kidney (vesamicol receptor; [3]): 0.46 % dose/g of tissue
radioactivity in liver (vesamicol receptor; [3]): 0.63 % dose/g of tissue
radioactivity in lung (vesamicol receptor; [3]): 0.57 % dose/g of tissue
radioactivity in muscle (vesamicol receptor; [3]): 0.10 % dose/g of tissue
radioactivity in spleen (vesamicol receptor; [3]): 0.36 % dose/g of tissue
Brain: Blood Ratio (vesamicol receptor; [4]): 5.08
Heart: Blood Ratio (vesamicol receptor; [4]): 1.57
radioactivity in blood (vesamicol receptor; [4]): 0.13 % dose/g of tissue
radioactivity in brain (vesamicol receptor; [4]): 0.64 % dose/g of tissue
radioactivity in heart (vesamicol receptor; [4]): 0.20 % dose/g of tissue
radioactivity in kidney (vesamicol receptor; [4]): 0.98 % dose/g of tissue
radioactivity in liver (vesamicol receptor; [4]): 0.86 % dose/g of tissue
radioactivity in lung (vesamicol receptor; [4]): 0.92 % dose/g of tissue
radioactivity in muscle (vesamicol receptor; [4]): 0.15 % dose/g of tissue
radioactivity in spleen (vesamicol receptor; [4]): 0.83 % dose/g of tissue

OC(CN1CCC(c2ccccc2)CC1)c1ccc([125I])cc1 (single isomer, unassigned; (-)) [(-)-[^125 l]13] [1-(4-Iodophenyl)-2-(4-phenylpiperidinyl)ethanol]
decrease of concentration in the brain ([1]; 3 hours post-injection vs initial, listed as (-)-[^125 I]13): 85%
initial accumulation in the rat brain ([1]; listed as (-)-[^125 I]13): 1.69 % of the injected dose
Brain: Blood Ratio ([1]; 5 min): 8.7
Heart: Blood Ratio ([1]; 5 min): 6.2
radioactivity in blood ([1]; 5 min): 0.13 % dose/g
radioactivity in brain ([1]; 5 min): 1.08 % dose/g
radioactivity in heart ([1]; 5 min): 0.77 % dose/g
radioactivity in kidney ([1]; 5 min): 3.38 % dose/g
radioactivity in liver ([1]; 5 min): 1.72 % dose/g
radioactivity in lung ([1]; 5 min): 5.05 % dose/g
radioactivity in muscle ([1]; 5 min): 0.32 % dose/g
radioactivity in spleen ([1]; 5 min): 0.70 % dose/g
Brain: Blood Ratio ([1]; 60 min): 11.1
Heart: Blood Ratio ([1]; 60 min): 2.0
radioactivity in blood ([1]; 60 min): 0.06 % dose/g
radioactivity in brain ([1]; 60 min): .70 % dose/g
radioactivity in heart ([1]; 60 min): 0.13 % dose/g
radioactivity in kidney ([1]; 60 min): 1.47 % dose/g
radioactivity in liver ([1]; 60 min): 1.90 % dose/g
radioactivity in lung ([1]; 60 min): 0.54 % dose/g
radioactivity in muscle ([1]; 60 min): 0.11 % dose/g
radioactivity in spleen ([1]; 60 min): 0.57 % dose/g
Brain: Blood Ratio ([1]; 180 min): 5.5
Heart: Blood Ratio ([1]; 180 min): 0.9
radioactivity in blood ([1]; 180 min): 0.06 % dose/g
radioactivity in brain ([1]; 180 min): 0.35 % dose/g
radioactivity in heart ([1]; 180 min): 0.05 % dose/g
radioactivity in kidney ([1]; 180 min): 0.74 % dose/g
radioactivity in liver ([1]; 180 min): 0.98 % dose/g
radioactivity in lung ([1]; 180 min): 0.24 % dose/g
radioactivity in muscle ([1]; 180 min): 0.05 % dose/g
radioactivity in spleen ([1]; 180 min): 0.23 % dose/g
radioactivity in heart (vesamicol receptor; rat, iv, 60 min, + (dl)-vesamicol HCl 0.3 (Table 3) or 0.31 mg/kg): 0.08 % dose/g of tissue
Brain: Blood Ratio (vesamicol receptor; [2]): 1.61
Heart: Blood Ratio (vesamicol receptor; [2]): 0.99
radioactivity in blood (vesamicol receptor; [2]): 0.08 % dose/g of tissue
radioactivity in brain (vesamicol receptor; [2]): 0.13 % dose/g of tissue
radioactivity in kidney (vesamicol receptor; [2]): 0.38 % dose/g of tissue
radioactivity in liver (vesamicol receptor; [2]): 1.44 % dose/g of tissue
radioactivity in lung (vesamicol receptor; [2]): 0.34 % dose/g of tissue
radioactivity in muscle (vesamicol receptor; [2]): 0.07 % dose/g of tissue
radioactivity in spleen (vesamicol receptor; [2]): 0.27 % dose/g of tissue
Brain: Blood Ratio (vesamicol receptor; [4]): 7.41
Heart: Blood Ratio (vesamicol receptor; [4]): 1.31
radioactivity in blood (vesamicol receptor; [4]): 0.10 % dose/g of tissue
radioactivity in brain (vesamicol receptor; [4]): 0.73 % dose/g of tissue
radioactivity in heart (vesamicol receptor; [4]): 0.13 % dose/g of tissue
radioactivity in kidney (vesamicol receptor; [4]): 1.26 % dose/g of tissue
radioactivity in liver (vesamicol receptor; [4]): 1.66 % dose/g of tissue
radioactivity in lung (vesamicol receptor; [4]): 0.66 % dose/g of tissue
radioactivity in muscle (vesamicol receptor; [4]): 0.11 % dose/g of tissue
radioactivity in spleen (vesamicol receptor; [4]): 0.61 % dose/g of tissue

From patent US5358712A, “Radiopharmaceutical agents for the detection of Alzheimer's disease” (Regents of the University of Minnesota, priority 1993, dated 1994)
